Measurements published in ChEMBL document CHEMBL1128430, “1,1-Bisphosphonate squalene synthase inhibitors: interplay between the isoprenoid subunit and the diphosphate surrogate” (J Med Chem, 1995).
Activity calls are given as the source filed them. The calls are words filed in the database; no cut-off is given here.

Tests used:
Squalene synthase = target: T1, Squalene synthase (Rattus norvegicus, UniProt Q02769); assay: Inhibition rat liver microsomal squalene synthase
T1 sequence (Q02769 whole entry): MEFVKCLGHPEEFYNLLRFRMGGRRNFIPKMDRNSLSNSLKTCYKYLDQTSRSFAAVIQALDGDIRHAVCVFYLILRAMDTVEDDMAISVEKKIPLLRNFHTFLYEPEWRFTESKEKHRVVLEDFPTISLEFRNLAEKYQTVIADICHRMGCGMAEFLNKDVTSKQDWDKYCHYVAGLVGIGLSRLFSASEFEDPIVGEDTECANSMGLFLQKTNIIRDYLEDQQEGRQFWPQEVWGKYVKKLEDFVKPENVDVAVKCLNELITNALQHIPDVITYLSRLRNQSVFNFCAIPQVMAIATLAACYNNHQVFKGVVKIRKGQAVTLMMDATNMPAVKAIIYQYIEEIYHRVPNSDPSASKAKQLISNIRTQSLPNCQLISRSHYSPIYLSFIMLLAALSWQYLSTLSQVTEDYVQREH

[1] = target: T2, Squalene synthase (Rattus norvegicus) (UniProt Q02769); assay: Effective dose to inhibit rat liver microsomal Squalene Synthase was determined by intravenous administration
T2 sequence (whole entry): T1 sequence (Q02769 whole entry)

[2] = target: T2, Squalene synthase (Rattus norvegicus); assay: Effective dose to inhibit rat liver microsomal Squalene Synthase was determined by peroral administration
[3] = target: T2, Squalene synthase (Rattus norvegicus); assay: Effective dose to inhibit rat liver microsomal Squalene Synthase was determined by peroral administration at a dose of 30 mg/kg; In active; format: organism-based; design: dose 30 mg/kg
[4] = target: T2, Squalene synthase (Rattus norvegicus); assay: Effective dose to inhibit rat liver microsomal Squalene synthase was determined by peroral administration at a dose of 15 mg/kg; inactive; format: organism-based; design: dose 15 mg/kg
[5] = target: T2, Squalene synthase (Rattus norvegicus); assay: Effective dose to inhibit rat liver microsomal Squalene Synthase was determined by peroral administration at 15 mg/kg dose; format: organism-based; design: dose 15 mg/kg
[6] = target: T2, Squalene synthase (Rattus norvegicus); conditions: 30 mg/kg

Row | IC50 (Squalene synthase) [nM] | SMILES | other results
1 | 32.4 | CC(C)=CCC/C(C)=C/CC/C(C)=C/CC(P(=O)(O)O)P(=O)(O)O | –
2 | 12.9 | CC(C)=CCC/C(C)=C/CC/C(C)=C/CCCC(P(C)(=O)O)P(=O)(O)O (configuration not stated) | –
3 | 81 | CC(C)=CCC/C(C)=C/CCCC(P(C)(=O)O)P(=O)(O)O (configuration not stated) | –
4 | 1650 | CC(C)=CCC/C(C)=C/CCCC(C(=O)O)P(=O)(O)O (configuration not stated) | –
5 | 77.7 | CC(C)=CCC/C(C)=C/CCC(P(=O)(O)O)P(=O)(O)O | –
6 | 8600 | CC(C)=CCC/C(C)=C/CC(P(C)(=O)O)P(=O)(O)O (configuration not stated) | –
7 | 6.5 | CC(C)=CCC/C(C)=C/CC/C(C)=C/CCCCC(P(C)(=O)O)P(=O)(O)O (configuration not stated) | –
8 | 2.5 | CC(C)=CCC/C(C)=C/CCCCCC(P(=O)(O)O)P(=O)(O)O | ED50 [1]: 0.04 mg/kg; ED50 [2]: 1.1 mg/kg
9 | 490 | CP(=O)(O)C(CCCc1ccc(-c2ccccc2)cc1)P(=O)(O)O (configuration not stated) | –
10 | 4.7 | CC(C)=CCC/C(C)=C/CC/C(C)=C/CCCC(P(=O)(O)O)P(=O)(O)CO (configuration not stated) | –
11 | 6.5 | COCP(=O)(O)C(CCC/C=C(\C)CC/C=C(\C)CCC=C(C)C)P(=O)(O)O (configuration not stated) | –
12 | 38.7 | CC(C)=CCC/C(C)=C/CCCC(P(=O)(O)O)P(=O)(O)CO (configuration not stated) | –
13 | 13.1 | COCP(=O)(O)C(CCC/C=C(\C)CCC=C(C)C)P(=O)(O)O (configuration not stated) | –
14 | 106 | CC(C)=CCC/C(C)=C/CC/C(C)=C/CC(P(C)(=O)O)P(=O)(O)O (configuration not stated) | –
15 | 374 | CC(C)=CCC/C(C)=C/CCCCCCC(P(C)(=O)O)P(=O)(O)O (configuration not stated) | –
16 | 14.8 | COCP(=O)(O)C(CCCc1ccc(-c2ccccc2)cc1)P(=O)(O)O (configuration not stated) | –
17 | 2200 | O=C(O)C(CCCc1ccc(-c2ccccc2)cc1)P(=O)(O)O (configuration not stated) | –
18 | 4.2 | CC(C)=CCC/C(C)=C/CCCCCCCC(P(=O)(O)O)P(=O)(O)O | ED50 [1]: 0.05 mg/kg; ED50 [3]: inactive
19 | 35.5 | CC(C)=CCC/C(C)=C/CC(P(=O)(O)O)P(=O)(O)O | ED50 [4]: inactive
20 | 880 | CC(C)=CCC/C(C)=C/CC/C(C)=C/CCCC(C(=O)O)P(=O)(O)O (configuration not stated) | –
21 | 23.9 | O=P(O)(O)C(CCCc1ccc(-c2ccccc2)cc1)P(=O)(O)CO (configuration not stated) | –
22 | 6600 | CC(C)=CCCCC(P(=O)(O)O)P(=O)(O)O | –
23 | 11.8 | CC(C)=CCC/C(C)=C/CC/C(C)=C/CCCCCCC(P(=O)(O)O)P(=O)(O)O | ED50 [1]: 0.13 mg/kg; inhibition [5]: 26%
24 | 605 | CC(C)=CCC/C(C)=C/CCCCC(P(C)(=O)O)P(=O)(O)O (configuration not stated) | –
25 | 30.7 | CC(C)=CCC/C(C)=C/CCCCCC(P(C)(=O)O)P(=O)(O)O (configuration not stated) | –
26 | 8.7 | CC(C)=CCC/C(C)=C/CCCCCCCC(P(C)(=O)O)P(=O)(O)O (configuration not stated) | –
27 | 17.6 | CC(C)=CCC/C(C)=C/CCCCCCC(P(=O)(O)O)P(=O)(O)O | inhibition [6]: 25%
28 | 2.6 | CC(C)=CCC/C(C)=C/CCCCC(P(=O)(O)O)P(=O)(O)O | –

Row | SMILES | IC50 (Squalene synthase) [nM] | other results
29 | CC(C)=CCC/C(C)=C/CCCC([PH](=O)O)P(=O)(O)O (configuration not stated) | 4 | –
